The term AUC(0-inf) denotes the area under the concentration-time curve extrapolated to infinity. A word on the AUC(0-t): it is exposure summed from dosing to a finite time, without extrapolation to infinity. A high value points to more exposure. As a reminder, the half-life is the time in which the quantity being followed falls by half. For orientation: Cmax means the peak of the concentration-time curve. Usually Tmax stands for the time at which the peak concentration occurs. What is called IC50 is the concentration needed to halve the response being measured.

The source of these data is patent US12629358B2, “Compound used as RET kinase inhibitor and application thereof” (TYK MEDICINES, INC., priority 2019, dated 2026).

Structures are written as SMILES. Changes are numbered by the printed parent chain. Like-named read-outs stand apart in the source and are kept apart here.

Data set [1] has as its system tumor patients with RET fusion and mutation. To be noted: Phase I, cited from earlier work.
Data set [2] can be described thus: Metabolism test of drugs: plasma pharmacokinetics after intravenous and intragastric administration. Format: in vivo. To be noted: SD rats; for CL_obs / AUC(0-inf) / AUC(0-t) / half-life / MRT / Vd / Cmax / Tmax: plasma; for F: PO 10 mg/kg vs IV 2 mg/kg; for AUC(0-inf) / AUC(0-t) / half-life / MRT / Vd / Cmax / Tmax: male, rat; for MRT: read-out: MRTINF_ obs; for Vd: read-out: Vss. How it is done:
Four small molecule compounds of BLU-667, compound C2, compound C4 and compound C8 were administered to SD rats by intravenous and intragastric administration respectively. Blood samples were collected at different time points to determine the concentration of drugs in plasma after administration and calculate the related pharmacokinetics parameters.
The vehicle of BLU-667, C2, C4 and C8 was 10% NMP+49% PEG400+1% Tween80+40% Water. The specific preparation method was as follows: proper amount of tested samples was weighed, dissolved in 10% NMP+49% PEG400+1% Tween80+40% Water, mixed well by vortex for later use.
LC-MS/MS was used by the analysis department of the experimental organization to detect and analyze the prepared solution of sample for test.
Healthy male SD rats were used in this research. Animal weight: 150-200 g. All animals fasted before administration, and resumed feeding 4 hours after administration.
Time points for blood collection were: • Intravenous administration (groups 1, 3 and 5): 0.0833, 0.25, 0.5, 1, 2, 4, 8, 12 and 24 hours after administration. (±2 min at time point ≤2 hr, ±15 min at other points.) • Oral administration: (groups 2, 4, 6 and 7): 0.25, 0.5, 1, 2, 4, 8, 12 and 24 hours after administration. (±2 m at time point […] at other points.)
About 0.1 mL of blood was collected from each animal through jugular vein every time, and EDTA or heparin sodium was used as anticoagulant. Blood samples were collected and placed on ice, and plasma was separated by centrifugation (centrifugation conditions: 5000 r/min, 6 min, 4° C.).
LC-MS/MS was used by the analysis department of the experimental organization to analyze the plasma samples of rats.
According to the data of blood drug concentration of the drug, the pharmacokinetic parameters AUC0→t, AUC0→∞, MRT0→∞, CMax, TMax, Vss, F, CL and T1/2 as well as their mean and standard deviation of the samples for test were calculated respectively by pharmacokinetic calculation software WinNonlin non-compartment model.
The main pharmacokinetic parameters of BLU-667, compound C2, compound C4 and compound C8 in plasma after intravenous and single oral administration of BLU-667, compound C2, compound C4 and compound C8 in SD rats were shown in Table 3

The target of data set [3] is T1, Ba/F3-KIF5B-RET-V804M cells (Homo sapiens, UniProt P07949, V804M).
T1 construct: host or cells: Ba/F3 (BaF3 from RIKEN BRC CELL BANK); the other entry of the earlier key: KIF5B (P33176, Kinesin-1 heavy chain)
T1 sequence (P07949 713-1063 V804M limits assumed): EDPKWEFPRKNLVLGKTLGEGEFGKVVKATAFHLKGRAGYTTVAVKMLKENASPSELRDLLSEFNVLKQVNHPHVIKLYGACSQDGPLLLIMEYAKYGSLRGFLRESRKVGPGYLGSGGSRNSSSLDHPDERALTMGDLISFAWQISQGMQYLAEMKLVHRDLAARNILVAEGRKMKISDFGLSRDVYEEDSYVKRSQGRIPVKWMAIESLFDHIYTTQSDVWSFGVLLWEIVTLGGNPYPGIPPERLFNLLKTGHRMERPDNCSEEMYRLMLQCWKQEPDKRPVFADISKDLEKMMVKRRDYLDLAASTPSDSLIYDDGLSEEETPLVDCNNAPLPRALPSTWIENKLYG
Nature of the data set: Cell anti-proliferation experiment (CellTiter-Glo), Ba/F3-KIF5B-RET-V804M. Format: cell-based. The settings on record: cell viability, 72 h. The protocol: (§1) Ba/F3-KIF5B-RET, Ba/F3-KIF5B-RET-V804L and Ba/F3-KIF5B-RET-V804M cells were constructed by PreceDo Pharmaceuticals Co., Ltd.
(§2) Ba/F3-KIF5B-RET, Ba/F3-KIF5B-RET-V804L and Ba/F3-KIF5B-RET-V804M medium: RPMI-1640+10% FBS+1% P/S.
(§3) A 1000× solution of the compound was prepared with DMSO, the compound was diluted to 20 times final concentration with a growth medium, and […] was added.
(§4) The suspended cells were rotated downward, resuscitated in the growth medium, and then counted with a cell counter. The cell suspension was diluted to the desired concentration in the growth medium. 95p L cell suspension was fed to a 96-well plate. 5 μL of 20× compound was added to the […], and the final DMSO concentration per well was 0.1%; incubated at 37° C. with 5% CO2 for 72 h
(§5) The plate was equilibrated to room temperature before measurement, 50 μl of CellTiter-Glo® reagent was added into each well, mixed on a shaker for 2 minutes, incubated at room temperature for 10 minutes, and recorded with Paradigm.
(§6) Cell viability was analyzed using Graphpad 7.0 software according to the formula Cell viability (CV %)=(RLU compound−RLU blank)/(RLU control−RLU blank)*100%, and the corresponding IC50 data were calculated as shown in Table 2
In general terms: ATP-based viability assays read luminescence as a measure of living cells.

Another data set has as its target T2, Ba/F3-KIF5B-RET cells (Homo sapiens, UniProt P07949).
T2 construct: host or cells: Ba/F3 (BaF3 from RIKEN BRC CELL BANK); the other entry of the earlier key: KIF5B (P33176, Kinesin-1 heavy chain)
T2 sequence (P07949 713-1063 limits assumed): T1 sequence (P07949 713-1063 V804M limits assumed) with M92V
Nature of the data set: Cell anti-proliferation experiment (CellTiter-Glo), Ba/F3-KIF5B-RET. The settings on record: cell viability, 72 h. Format: cell-based. The protocol:
as §1, §2, §3, §4, §5, §6

Data set [4] deals with T3, Ba/F3-KIF5B-RET-V804L cells (Homo sapiens, UniProt P07949, V804L).
T3 construct: host or cells: Ba/F3 (BaF3 from RIKEN BRC CELL BANK); the other entry of the earlier key: KIF5B (P33176, Kinesin-1 heavy chain)
T3 sequence (P07949 713-1063 V804L limits assumed): T1 sequence (P07949 713-1063 V804M limits assumed) with M92L
Nature of the data set: Cell anti-proliferation experiment (CellTiter-Glo), Ba/F3-KIF5B-RET-V804L. Format: cell-based. To be noted: cell viability, 72 h. How it is done: as §1, §2, §3, §4, §5, §6

In another data set the target is wild-type RET kinase (Homo sapiens, UniProt P07949). Description: Enzyme activity test against wild-type RET kinase (33P-ATP filter-binding kinase activity assay). Format: biochemical. To be noted: ATP Km concentration, 10 concentrations. How it is done:
A biological activity test experiment was conducted below for some compounds of the above Examples and Comparative Example.
[…]. The biological activity screening of the compounds will be determined repeatedly at 10 concentrations.
Each sample was prepared into a solution with a concentration of 10 mM.
The test compound was dissolved in 100% dimethyl sulfoxide to a specific concentration. Integra Viaflo Assist was used to assist DMSO for (continuous) dilution.
Kinase was added to the newly prepared basic reaction buffer
Adding any desired cofactors to the substrate solution.
Adding wild-type RET kinase into the substrate solution and gently mixing;
Acoustic technology (Echo 550; Nanoliter range) was used to feed the compounds in 100% of dimethyl sulfoxide into the kinase reaction mixture and incubated at room temperature for 20 minutes.
33P-ATP (specific activity 10 Ci/l) was added to the reaction mixture to start the reaction.
Incubated at room temperature for 2 hours
Radioactivity was detected by filter-binding method.
Kinase activity data was expressed as the percentage of remaining kinase activity in the test sample compared to the vehicle (dimethyl sulfoxide) reaction. Prism (GRAPHPAD software) was used to obtain IC50 value and curve-fitting.

The mark [5] stands for this setting: PO, versus control compound (BLU-667).

Sequence of wild-type RET kinase (P07949 29-1114): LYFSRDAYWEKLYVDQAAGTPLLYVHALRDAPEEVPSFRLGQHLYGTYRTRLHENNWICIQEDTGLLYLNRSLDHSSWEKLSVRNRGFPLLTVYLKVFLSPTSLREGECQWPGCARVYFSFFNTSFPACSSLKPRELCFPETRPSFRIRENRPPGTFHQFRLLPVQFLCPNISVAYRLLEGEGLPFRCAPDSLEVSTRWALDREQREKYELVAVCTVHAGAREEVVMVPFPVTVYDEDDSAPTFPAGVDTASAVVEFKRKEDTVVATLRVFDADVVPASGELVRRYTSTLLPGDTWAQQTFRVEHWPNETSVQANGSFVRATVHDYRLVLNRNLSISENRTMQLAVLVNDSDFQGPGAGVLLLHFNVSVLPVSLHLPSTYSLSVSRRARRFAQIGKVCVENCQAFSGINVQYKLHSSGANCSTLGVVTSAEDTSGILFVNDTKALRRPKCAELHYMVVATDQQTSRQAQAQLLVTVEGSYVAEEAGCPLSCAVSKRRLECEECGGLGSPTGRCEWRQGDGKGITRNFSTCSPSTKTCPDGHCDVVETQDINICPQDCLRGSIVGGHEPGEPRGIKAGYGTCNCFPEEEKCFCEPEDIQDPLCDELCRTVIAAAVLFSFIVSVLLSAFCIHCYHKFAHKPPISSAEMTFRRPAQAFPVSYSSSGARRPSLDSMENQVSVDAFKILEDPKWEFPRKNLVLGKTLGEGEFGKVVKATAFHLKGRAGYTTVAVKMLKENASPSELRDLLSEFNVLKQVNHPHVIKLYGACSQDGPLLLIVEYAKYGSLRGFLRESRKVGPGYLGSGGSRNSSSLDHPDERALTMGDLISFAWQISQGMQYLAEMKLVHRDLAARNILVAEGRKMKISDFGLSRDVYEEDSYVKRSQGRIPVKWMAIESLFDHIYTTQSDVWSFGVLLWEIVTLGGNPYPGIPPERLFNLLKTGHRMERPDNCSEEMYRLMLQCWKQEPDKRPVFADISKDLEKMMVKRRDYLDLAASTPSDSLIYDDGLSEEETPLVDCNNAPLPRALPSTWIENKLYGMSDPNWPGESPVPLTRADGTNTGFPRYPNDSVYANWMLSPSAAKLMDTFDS

For the molecule `CO[C@]1(C(=O)N[C@@H](C)c2ccc(-n3cc(F)cn3)nc2)CC[C@H](c2nc(C)cc(Nc3cc(C)[nH]n3)n2)CC1` [BLU-667, reference compound], in data set [1] (patients with medullary thyroid carcinoma), the ORR is on record as 40%. Moreover, in data set [1] (patients with non-small cell lung cancer), the ORR is 50%. The “overall remission rate (ORR)” value in data set [1] (tumor patients with RET fusion and mutation) was 45%. In data set [2] (IV, 2 mg/kg), this molecule had a CL_obs of 24.5 mL/min/kg, an AUC(0-inf) of 1410 ng·h/mL, an AUC(0-t) of 1330 ng·h/mL and a half-life of 5.52 h. In addition, in data set [2] (IV, 2 mg/kg), the MRT worked out at 6.1 h and the Vd was 8.53 L/kg. In data set [2], this molecule showed an F of 61.14%. Further, in data set [2] (PO, 10 mg/kg), the AUC(0-inf) turned out to be 4110 ng·h/mL, the AUC(0-t) was determined as 4080 ng·h/mL, the concentration peaked (Cmax) at 632 ng/mL and the time of peak concentration (Tmax) is 4 h. Further, in data set [2] (PO, 10 mg/kg), the half-life was 3.36 h and the MRT came out at 5.08 h.

As for `CO[C@]1(C(=O)N[C@@H](C)c2ccc(-n3cc(F)cn3)nc2)CC[C@H](c2nc(Nc3cc(C)[nH]n3)ccc2C#N)CC1` [Compound C2], in data set [3], half-maximal inhibition (IC50) required 42.4 nM. The molecule also displayed an IC50 against Ba/F3-KIF5B-RET cells of 23.1 nM. This molecule gave an IC50 in data set [4] of 16.9 nM. In data set [2] (IV, 2 mg/kg), this molecule showed a CL_obs of 8.67 mL/min/kg, an AUC(0-inf) of 3900 ng·h/mL, an AUC(0-t) of 3850 ng·h/mL and a half-life of 4.12 h. In data set [2] (IV, 2 mg/kg), the MRT came to 4.89 h and the Vd came to 2.56 L/kg. In addition, the F in data set [2] amounted to 11.96%. In addition, in data set [2] (PO, 10 mg/kg), the AUC(0-inf) turned out to be 2320 ng·h/mL, the AUC(0-t) amounted to 2300 ng·h/mL, the peak level (Cmax) was 325 ng/mL and the Tmax was determined as 2 h. In addition, in data set [2] (PO, 10 mg/kg), the half-life was 3.26 h and the MRT stood at 6.05 h. Moreover, at wild-type RET kinase, the IC50 was determined as 1.98 nM.

`CO[C@]1(C(=O)N[C@@H](C)c2ccc(-n3cc(F)cn3)nc2)CC[C@H](c2nc(Nc3cc(C)[nH]n3)cc3cccnc32)CC1` [Compound C4]: 17.3 nM corresponded to half-maximal inhibition in data set [3] (IC50). The molecule also showed an IC50 against Ba/F3-KIF5B-RET cells of 9.1 nM. The molecule also gave an IC50 in data set [4] of 7.1 nM. Also, in data set [2] (IV, 2 mg/kg), the CL_obs came out at 7.67 mL/min/kg, the AUC(0-inf) was 4430 ng·h/mL, the AUC(0-t) turned out to be 4390 ng·h/mL and the half-life was 4.19 h. In addition, in data set [2] (IV, 2 mg/kg), the MRT is 3.74 h and the Vd came to 1.7 L/kg. Moreover, the F in data set [2] was 49.85%. Moreover, in data set [2] (setting [5]), the “maximum blood drug concentration (Cmax) increased compared with the control compound” value is on record as 3-4 times and the “plasma exposure amount AUC increased compared with the control compound” value is recorded as 2-3 times. For the same molecule, in data set [2] (PO, 10 mg/kg), the AUC(0-inf) was 11000 ng·h/mL, the AUC(0-t) amounted to 10900 ng·h/mL, the concentration peaked (Cmax) at 2460 ng/mL and the Tmax came out at 2 h. Moreover, in data set [2] (PO, 10 mg/kg), the half-life was 3.18 h and the MRT turned out to be 4.3 h. The molecule also returned an IC50 on wild-type RET kinase of 1.02 nM.
